In patent publication US3957978A, “Phosphonium anti-parasitics” (American Cyanamid Company, priority 1975, dated 1976):
Read-outs that look alike come from different tables or passages of the source.

Test system: Nematospiroides dubius
Assay: Evaluation (Efficacy) Test in Mice, Nematospiroides dubius
Type: in vivo
Details: for inhibition in vivo at 0.05 %: 0.05 % diet; for inhibition in vivo at 0.1 %: 0.1 % diet; for inhibition in vivo at 0.003 %: 0.003 % diet
Description: The primary target parasite of this test is Nematospiroides dubius (Family: Heligmosomidae), which is phylogenetically related to certain economically important parasites of domestic and farm animals. Mice are orally inoculated with 20 to 30 infective N. dubius larvae. Mixed infections are obtained by subsequent inoculation with Aspicularis tetraptera and Hymenolepis nana. Eighteen days after inoculation the mice are divided into groups of four. Each group receives one compound at a specified dose rate, either as a single gavage dose or fed continually in the feed. Four groups of five mice each are utilized as infected, untreated controls. […] Those mice receiving single oral doses (SOD) or a single subcutaneous injection (Sc) of 5 mg./kg. to 100 mg./kg. of animal body weight of the compound under test are treated 22 days after inoculation. Eight days after start of treatment (drug diet) and 4 days post treatment (single dose SOD or Sc), the mice are necropsied, the worms recovered and counted. Percent efficacy for Nematospiroides is calculated using the formula: % Efficacy Equals [formula]
The diet used in the test procedures is a standard commercial mouse chow containing meat and bone meal, dried skimmed milk, wheat germ meal, fish meal, animal liver meal, dried beet pulp, ground extended corn, oat middlings, soybean meal, dehydrated alfalfa meal, cane molasses. animal fat preserved with BHA, vitamin B-12 supplement, calcium panthotenate, choline chloride, folic acid, riboflavin supplement, brewer's dried yeast, thiamine, niacin, vitamin A supplement, D activated plant sterol, vitamin E supplement, dicalcium phosphate, iodized salt, ferric ammonium citrate, iron oxide, manganous oxide, cobalt carbonate, copper oxide and zinc oxide; and the desired level of test compound.
When the drug is administered as a single oral dose, the drug is weighed and suspended in 0.2% agar, thoroughly mixed and orally introduced at the required volume.

[1] = Heligmosomoides polygyrus, po, 168 h, drug diet, 7 days, read-out: % Efficacy N.d.
[2] = Heligmosomoides polygyrus, po, single oral dose, read-out: % Efficacy N.d.
[3] = drug diet, 0.006 % diet, 7 days
[4] = drug diet, 0.0125 % diet, 7 days
[5] = single oral dose, 10 mg/kg, dosage weight is that of the cation
[6] = single oral dose, 25 mg/kg, dosage weight is that of the cation
[7] = Heligmosomoides polygyrus, po, 168 h, drug diet, 0.0125 % diet, 7 days, read-out: % Efficacy N.d.
[8] = Heligmosomoides polygyrus, po, 168 h, drug diet, 0.025 % diet, 7 days, read-out: % Efficacy N.d.
[9] = Heligmosomoides polygyrus, po, single oral dose, 25 mg/kg, read-out: % Efficacy N.d.
[10] = Heligmosomoides polygyrus, po, 168 h, drug diet, 0.006 % diet, 7 days, read-out: % Efficacy N.d.
[11] = Heligmosomoides polygyrus, po, single oral dose, 5 mg/kg, read-out: % Efficacy N.d.
[12] = Heligmosomoides polygyrus, po, single oral dose, 10 mg/kg, read-out: % Efficacy N.d.
[13] = Heligmosomoides polygyrus, sc, subcutaneous, 10 mg/kg, read-out: % Efficacy N.d.
[14] = Heligmosomoides polygyrus, sc, subcutaneous, 25 mg/kg, read-out: % Efficacy N.d.

SMILES: Cc1ccc(P(=C[P+](c2ccccc2)(c2ccccc2)c2ccccc2)(c2ccccc2)c2ccccc2)cc1
- inhibition in vivo at 0.05 % [1]: 59%
- inhibition in vivo at 0.1 % [1]: 67%
- inhibition in vivo at 50 mg/kg [2]: 31%
- inhibition in vivo at 100 mg/kg [2]: 67%

SMILES: C(=P(c1ccccc1)(c1ccccc1)c1ccccc1)[P+](c1ccccc1)(c1ccccc1)c1ccccc1.[I-] [Type II, R1 Phenyl, X I, Triphenyl[(triphenylphosphoranylidene)methyl]-phosphonium Iodide]
- % Efficacy N.d. [3]: 89%
- % Efficacy N.d. [4]: 100%
- % Efficacy N.d. (single oral dose, 5 mg/kg): 26%
- % Efficacy N.d. (single oral dose, 10 mg/kg): 67%
- % Efficacy N.d. (single oral dose, 25 mg/kg): 91%

SMILES: c1ccc(C[P+](C[P+](Cc2ccccc2)(c2ccccc2)c2ccccc2)(c2ccccc2)c2ccccc2)cc1 [Type I, R1 Benzyl, X Br, Methylenebis(benzyldiphenyl)phosphonium Dibromide]
- inhibition in vivo at 0.05 % [1]: 73%
- inhibition in vivo at 50 mg/kg [2]: 79%
- inhibition in vivo at 100 mg/kg [2]: 80%

SMILES: Cc1ccc([P+](C[P+](c2ccccc2)(c2ccccc2)c2ccc(C)cc2)(c2ccccc2)c2ccccc2)cc1 [Type I, R1 p-tolyl, X Br, Methylenebis(diphenyl-p-tolyl) Phosphonium Dibromide]
- inhibition in vivo at 0.1 % [1]: 57%
- inhibition in vivo at 50 mg/kg [2]: 57%
- inhibition in vivo at 100 mg/kg [2]: 75%

SMILES: C(=P(c1ccccc1)(c1ccccc1)c1ccccc1)[P+](c1ccccc1)(c1ccccc1)c1ccccc1 [Type II, R1 Phenyl, X 2,6-Diiodo-4-nitrophenol] [Triphenyl[(triphenylphosphoranylidene)methyl]-phosphonium-2,6-diiodo-4-nitrophenolate]
- % Efficacy N.d. [3]: 41%
- % Efficacy N.d. [4]: 86.5%
- % Efficacy N.d. (drug diet, 0.025 % diet, 7 days): 99.5%
- % Efficacy N.d. (single oral dose, 5 mg/kg, dosage weight is that of the cation): 36.7%
- % Efficacy N.d. [5]: 44.7%
- % Efficacy N.d. [6]: 88.5%

SMILES: Cc1ccc(P(=C[P+](c2ccccc2)(c2ccccc2)c2ccc(C)cc2)(c2ccccc2)c2ccccc2)cc1 [Type II, R1 p-tolyl, X Br]
- inhibition in vivo at 0.1 % [1]: 53%
- inhibition in vivo at 50 mg/kg [2]: 36%
- inhibition in vivo at 100 mg/kg [2]: 89%

SMILES: c1ccc(CC(=P(c2ccccc2)(c2ccccc2)c2ccccc2)[P+](c2ccccc2)(c2ccccc2)c2ccccc2)cc1 [Type II, R2 Benzyl, X Br]
- inhibition in vivo at 0.0125 % [7]: 89%
- inhibition in vivo at 0.025 % [8]: 96%
- inhibition in vivo at 0.05 % [1]: 100%
- inhibition in vivo at 25 mg/kg [9]: 72%
- inhibition in vivo at 50 mg/kg [2]: 100%

SMILES: CCCCCCC(=P(c1ccccc1)(c1ccccc1)c1ccccc1)[P+](c1ccccc1)(c1ccccc1)c1ccccc1 [Type II, R2 n-Hexyl, X Br]
- inhibition in vivo at 0.006 % [10]: 58%
- inhibition in vivo at 0.0125 % [7]: 79%
- inhibition in vivo at 0.025 % [8]: 100%
- inhibition in vivo at 25 mg/kg [9]: 39%
- inhibition in vivo at 50 mg/kg [2]: 61%
- inhibition in vivo at 100 mg/kg [2]: 94%

SMILES: C(=P(c1ccccc1)(c1ccccc1)c1ccccc1)[P+](c1ccccc1)(c1ccccc1)c1ccccc1 [Type II, R1 Phenyl, X Br^-.CuBr2]
- inhibition in vivo at 0.025 % [8]: 100%
- inhibition in vivo at 10 mg/kg (Heligmosomoides polygyrus, po, single oral dose, 10 mg/kg, dosage weight is that of the cation, read-out: % Efficacy N.d.): 43%
- inhibition in vivo at 25 mg/kg (Heligmosomoides polygyrus, po, single oral dose, 25 mg/kg, dosage weight is that of the cation, read-out: % Efficacy N.d.): 76%
- % Efficacy N.d. [4]: 51%

SMILES: C(=P(c1ccccc1)(c1ccccc1)c1ccccc1)[P+](c1ccccc1)(c1ccccc1)c1ccccc1.[Br-] [Type II, R1 Phenyl, X Br, Triphenyl[(triphenylphosphoranylidene)methyl]-phosphonium Bromide]
- inhibition in vivo at 5 mg/kg [11]: 32.5%
- inhibition in vivo at 10 mg/kg [12]: 65%
- inhibition in vivo at 10 mg/kg [13]: 74%
- inhibition in vivo at 25 mg/kg [14]: 94%
- % Efficacy N.d. [3]: 94%
- % Efficacy N.d. [4]: 100%
- % Efficacy N.d. (single oral dose, 25 mg/kg): 89%

SMILES: CCCC(=P(c1ccccc1)(c1ccccc1)c1ccccc1)[P+](c1ccccc1)(c1ccccc1)c1ccccc1 [Type II, R2 n-Propyl, X I]
- inhibition in vivo at 0.003 % [1]: 50%
- inhibition in vivo at 0.006 % [10]: 86%
- inhibition in vivo at 0.0125 % [7]: 88%
- inhibition in vivo at 0.025 % [8]: 100%
- inhibition in vivo at 10 mg/kg [12]: 42%
- inhibition in vivo at 25 mg/kg [9]: 63%
- inhibition in vivo at 50 mg/kg [2]: 100%

SMILES: CC(=P(c1ccccc1)(c1ccccc1)c1ccccc1)[P+](c1ccccc1)(c1ccccc1)c1ccccc1 [Type II, R2 Methyl, X I, Triphenyl[1-(triphenylphosphoranylidene)ethyl]-phosphonium Iodide]
- inhibition in vivo at 0.003 % [1]: 57%
- inhibition in vivo at 0.006 % [10]: 98%
- inhibition in vivo at 0.0125 % [7]: 99%
- inhibition in vivo at 5 mg/kg [11]: 65%
- inhibition in vivo at 10 mg/kg [12]: 96%
- inhibition in vivo at 25 mg/kg [9]: 98%
- inhibition in vivo at 5 mg/kg (Heligmosomoides polygyrus, sc, subcutaneous, 5 mg/kg, read-out: % Efficacy N.d.): 80%
- inhibition in vivo at 10 mg/kg [13]: 95%
- inhibition in vivo at 25 mg/kg [14]: 100%

SMILES: COc1cccc(CC(=P(c2ccccc2)(c2ccccc2)c2ccccc2)[P+](c2ccccc2)(c2ccccc2)c2ccccc2)c1 [Type II, R2 m-methoxybenzyl, X Cl]
- inhibition in vivo at 0.0125 % [7]: 58%
- inhibition in vivo at 0.025 % [8]: 88%
- inhibition in vivo at 0.05 % [1]: 100%
- inhibition in vivo at 50 mg/kg [2]: 58%
- inhibition in vivo at 100 mg/kg [2]: 76%

SMILES: CSCC(=P(c1ccccc1)(c1ccccc1)c1ccccc1)[P+](c1ccccc1)(c1ccccc1)c1ccccc1 [Type II, R2 CH3 --S--CH2 --, X Cl, [2-(methylthio)-1-(triphenylphosphoranylidene)-ethyl]triphenylphosphonium Chloride]
- inhibition in vivo at 0.025 % [8]: 56%
- inhibition in vivo at 0.05 % [1]: 65%
- inhibition in vivo at 0.1 % [1]: 97%

SMILES: c1ccc([P+](C[P+](c2ccccc2)(c2ccccc2)c2ccccc2)(c2ccccc2)c2ccccc2)cc1 [Type I, R1 Phenyl, X Br, Methylenebis Triphenylphosphonium Dibromide]
- inhibition in vivo at 0.025 % [8]: 100%
- inhibition in vivo at 0.125 % (Heligmosomoides polygyrus, po, 168 h, drug diet, 0.125 % diet, 7 days, read-out: % Efficacy N.d.): 94%
- inhibition in vivo at 10 mg/kg [13]: 42%
- inhibition in vivo at 25 mg/kg [14]: 84%
- % Efficacy N.d. [3]: 78%
- % Efficacy N.d. (single oral dose, 5 mg/kg): 49%
- % Efficacy N.d. (single oral dose, 10 mg/kg): 51.5%
- % Efficacy N.d. (single oral dose, 25 mg/kg): 95.5%

SMILES: CCC(=P(c1ccccc1)(c1ccccc1)c1ccccc1)[P+](c1ccccc1)(c1ccccc1)c1ccccc1 [Type II, R2 Ethyl, X I]
- inhibition in vivo at 0.006 % [10]: 46%
- inhibition in vivo at 0.0125 % [7]: 74%
- inhibition in vivo at 0.025 % [8]: 100%
- inhibition in vivo at 10 mg/kg [12]: 68%
- inhibition in vivo at 25 mg/kg [9]: 75%
- inhibition in vivo at 50 mg/kg [2]: 85%

SMILES: C(=P(c1ccccc1)(c1ccccc1)c1ccccc1)[P+](c1ccccc1)(c1ccccc1)c1ccccc1 [Type II, R1 Phenyl, X not printed]
- inhibition in vivo at 5 mg/kg (Heligmosomoides polygyrus, po, single oral dose, 5 mg/kg, dosage weight is that of the cation, read-out: % Efficacy N.d.): 49%
- % Efficacy N.d. [3]: 85%
- % Efficacy N.d. [4]: 100%
- % Efficacy N.d. [5]: 63%
- % Efficacy N.d. [6]: 94%

SMILES: IC(=P(c1ccccc1)(c1ccccc1)c1ccccc1)[P+](c1ccccc1)(c1ccccc1)c1ccccc1 [Type II, R2 I, X I]
- inhibition in vivo at 0.006 % [10]: 54%
- inhibition in vivo at 0.0125 % [7]: 98%
- inhibition in vivo at 0.025 % [8]: 100%
- inhibition in vivo at 50 mg/kg [2]: 70%

SMILES: C(=P(c1ccccc1)(c1ccccc1)c1ccccc1)[P+](c1ccccc1)(c1ccccc1)c1ccccc1.[Cl-] [Type II, R1 Phenyl, X Cl, Triphenyl[(triphenylphosphoranylidene)methyl]-phosphonium Chloride]
- inhibition in vivo at 25 mg/kg [9]: 96%
- % Efficacy N.d. [3]: 91%
- % Efficacy N.d. [4]: 100%
- % Efficacy N.d. (single oral dose, 10 mg/kg): 51%

SMILES: Cc1ccc([P+](C[P+](c2ccccc2)(c2ccccc2)c2ccccc2)(c2ccccc2)c2ccccc2)cc1 [P,P,P,P',P'-Pentaphenyl P'-p-tolyl-P,P' Methylenediphosphonium Dibromide]
- inhibition in vivo at 0.025 % [8]: 60%
- inhibition in vivo at 0.05 % [1]: 80%
- inhibition in vivo at 25 mg/kg [9]: 57%
- inhibition in vivo at 50 mg/kg [2]: 64%
- inhibition in vivo at 100 mg/kg [2]: 77%
